Results reported in patent US20110306503A1, “TEMPLATE-DEPENDENT NUCLEIC ACID POLYMERIZATION USING OLIGONUCLEOTIDE TRIPHOSPHATES BUILDING BLOCKS” (Yeda Research And Development Co. Ltd., priority 1999, published 2011).

Target: T1, Taq DNA polymerase (Thermus aquaticus, UniProt P19821)
T1 construct: a truncated version of Taq DNA polymerase (543 amino acids of the C-terminus part); made in house; host or cells: E. coli JM109 (pTTQ vector)
Assay: Labeled-primer extension assay
Format: biochemical
Conditions: for template-dependent incorporation: template T83, ApG3p and TpC3p together, FIG. 8 lane 2; for incorporation of complementary versus non-complementary dinucleotide: dinucleotide alone, FIG. 7 lanes 6 and 7
Method: The oligonucleotides that were used for this assay are detailed in Table 4 before. The reactions of labeled-primer extension included: polymerization buffer (40 mM Tricine-KOH, pH 8.0; 16 mM KCl; 5 mM MgCl2 and 4 μg BSA), 1 pmol template, 0.2 pmol of the p201 primer (labeled at its 5′ with P^32-γ-ATP using T4 polynucleotide kinase), 1 μM of the indicated dNTP's and 50 μM of the indicated di- or trinucleotide triphosphates in a total volume of 20 μl. The reactions were incubated for 5 minutes at 45° C., then 5 units of Taq DNA polymerase (see Example 3 for details) were added, followed by 20 minutes at 72° C. The reactions were terminated with 15 μl of stop solution (95% formamide, 20 mM EDTA and 0.05% bromophenol blue). Three μl were then separated on Urea-PAGE, and the radiolabeled DNA-bands were detected by phosphoimaging.

T1 sequence (P19821 290-832 limits assumed): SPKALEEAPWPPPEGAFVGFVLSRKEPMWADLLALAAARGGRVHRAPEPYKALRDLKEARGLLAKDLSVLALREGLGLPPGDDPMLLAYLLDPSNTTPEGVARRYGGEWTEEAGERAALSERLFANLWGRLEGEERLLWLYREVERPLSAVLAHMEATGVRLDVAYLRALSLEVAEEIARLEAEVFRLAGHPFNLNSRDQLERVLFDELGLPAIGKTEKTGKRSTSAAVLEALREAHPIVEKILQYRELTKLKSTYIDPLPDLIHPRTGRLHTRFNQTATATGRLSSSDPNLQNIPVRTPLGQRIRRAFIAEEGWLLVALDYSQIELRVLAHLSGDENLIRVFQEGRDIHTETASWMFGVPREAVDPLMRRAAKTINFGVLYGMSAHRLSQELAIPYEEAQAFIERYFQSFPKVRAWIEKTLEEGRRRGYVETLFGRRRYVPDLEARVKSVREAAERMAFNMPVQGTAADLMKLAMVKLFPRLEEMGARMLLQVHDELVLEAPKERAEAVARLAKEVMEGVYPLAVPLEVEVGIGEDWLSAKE

Compound	template-dependent incorporation	incorporation of complementary versus non-complementary dinucleotide (template T24)	other results
Nc1nc2c(ncn2[C@H]2C[C@H](O)[C@@H](COP(=O)(O)O[C@H]3C[C@H](n4cnc5c(N)ncnc54)O[C@@H]3CO)O2)c(=O)[nH]1 [ApG3p, 2′-deoxyadenylyl(3′-5′)-2′-deoxyguanosine]	template-dependent incorporation	–	–
Nc1ccn([C@H]2C[C@H](OP(=O)(O)OC[C@H]3O[C@@H](n4cnc5c(N)ncnc54)C[C@@H]3O)[C@@H](CO)O2)c(=O)n1 [CpA3p, 2′-deoxycytidylyl(3′-5′)-2′-deoxyadenosine]	–	seems to be incorporated	template-dependent incorporation onto 3′ end of labeled primer p201 (templates T80 and T81, 50 μM dinucleotide triphosphates, FIG. 6 lanes 3-7): correct incorporation; efficiency of incorporation compared to the natural dNTP's (templates T80 and T81, FIG. 6 lanes 3-7 vs lane 2): lower efficiency
Nc1ccn([C@H]2C[C@H](OP(=O)(O)OC[C@H]3O[C@@H](n4ccc(N)nc4=O)C[C@@H]3O)[C@@H](CO)O2)c(=O)n1 [CpC3p, 2′-deoxycytidylyl(3′-5′)-2′-deoxycytidine]	–	Only the complementary dinucleotide (CpA3p) seems to be incorporated	–
Cc1cn([C@H]2C[C@H](OP(=O)(O)OC[C@H]3O[C@@H](n4ccc(N)nc4=O)C[C@@H]3O)[C@@H](CO)O2)c(=O)[nH]c1=O [TpC3p, thymidylyl(3′-5′)-2′-deoxycytidine]	template-dependent incorporation	–	–
thymidylyl-3′-5′-thymidylyl-3′-5′-thymidine (DNA TTT; DNA, phosphodiester; triphosphate form of the trinucleotide, triphosphate end not given here, further chemistry not fully specified) [TpTpT3p]	–	–	template-dependent incorporation in a mix with dCTP and dATP (template T24, FIG. 7 lanes 4 and 5): utilized
